The source of these data is PMC10218498, “Exploring BenzylethoxyAryl Urea Scaffolds for Multitarget Immunomodulation Therapies” (International Journal of Molecular Sciences, 2023).

For data set [1], the system named is A-549 (pulmonary adenocarcinoma). In words: MTT cell proliferation assay, A-549. It is filed as cell-based, human. The following applies: for IC50: Homo sapiens, read-out: IC50 A-549; for SI (A-549) (IC50HEK293/A-549): selectivity index. As to the method:
The 3-(4,5-dimethylthiazol-2-yl)-2,5-diphenyltetrazolium bromide (MTT; Sigma Chemical Co.) dye reduction assay in 96-well microplates was used. […] After that, the supernatant was discarded and replaced by 100 µL of DMSO to dissolve formazan crystals. The absorbance was then read at 550 nm by spectrophotometry. For all concentrations of compound, cell viability was expressed as the percentage of the ratio between the mean absorbance of treated cells and the mean absorbance of untreated cells. Three independent experiments were performed, and the IC50 values (i.e., concentration half inhibiting cell proliferation) were graphically determined using GraphPad Prism 4 software.

Data set [2] concerns human microvessel endothelial cells (HMEC-1). As to the kind of experiment: MTT cell proliferation assay, HMEC-1. It counts as cell-based. As to conditions: 48 h of treatment. As to the method:
This assay allowed us to establish the corresponding IC50 values (expressed as the concentration, in μM, at which 50% of cell viability is achieved), shown in Table 1.
In 96-well plates, 5 × 10^3 (HT-29, MCF-7, A549, HMEC-1, Jurkat, and HEK-293) cells per well were incubated with serial dilutions of the tested compounds in a total volume of 100 μL of their respective growth media. The 3-(4,5-dimethylthiazol-2-yl)-2,5-diphenyltetrazolium bromide (MTT; Sigma Chemical Co.) dye reduction assay in 96-well microplates was used. After 2 days of incubation (37 °C, 5% CO2 in a humid atmosphere), 10 μL of MTT (5 mg/mL in phosphate-buffered saline, PBS) was added to each well, and the plate was incubated for a further 3 h (37 °C). After that, the supernatant was discarded and replaced by 100 µL of DMSO to dissolve formazan crystals. The absorbance was then read at 550 nm by spectrophotometry. For all concentrations of compound, cell viability was expressed as the percentage of the ratio between the mean absorbance of treated cells and the mean absorbance of untreated cells. Three independent experiments were performed, and the IC50 values (i.e., concentration half inhibiting cell proliferation) were graphically determined using GraphPad Prism 4 software.

Data set [3] has as its system HMEC-1 microtube formation. In words: Tube formation inhibition assay on Matrigel. It is filed as cell-based, human. As to conditions: HMEC-1 on Matrigel, 24 h. The method, then:
The capacity to inhibit the formation of a new vasculature network formed by HMEC-1 was evaluated on compounds 8 and 14 at different concentrations.
Wells of an IBIDI μ-slide angiogenesis (IBIDI, Martinsried, Germany) were coated with 15 μL of Matrigel® (10 mg/mL, BD Biosciences) at 4 °C. After gelatinization at 37 °C for 30 min, HMEC-1 cells were seeded at 2 × 10^4 cells/well in 25 μL of culture medium on top of the Matrigel and were incubated 30 min at 37 °C while are attached. Then, compounds were added and dissolved in 25 μL of culture medium, and after 24 h of incubation at 37 °C, tube formation was evaluated.

Read-outs that look alike come from different tables or passages of the source.

Take `Cc1c(COc2ccc(CN3CCCCC3C(=O)O)cc2Br)cccc1-c1ccccc1` (centres unmarked) [BMS-8, reference compound]: the IC50 in data set [1] (A549, MTT, 48 h of treatment) came to 6 ± 1 µM. The “SI (A-549) (IC50HEK293/A-549)” value in data set [1] was found to be 10.
`COc1ccc(COc2cccc(NC(=O)Nc3ccc(F)cc3)c2)cc1` [Compound 2]: the melting point lay in the range of 201 to 205 °C. In addition, the IC50 in data set [2] is > 100 µM. The IC50 in data set [1] (A549, MTT, 48 h of treatment) turned out to be 3.4 ± 0.8 µM. Moreover, the “SI (A-549) (IC50HEK293/A-549)” value in data set [1] was >29.
As to `COc1ccc(COc2cccc(NC(=O)Nc3ccc(Br)cc3)c2)cc1` [Compound 8], in data set [3], the “Minimum Active Conc. (inhibition of microtube formation)” value was found to be 20 µM. Further, the IC50 was > 100 µM in data set [2] and 1.6 ± 0.8 µM in data set [1] (A549, MTT, 48 h of treatment). Moreover, the “SI (A-549) (IC50HEK293/A-549)” value in data set [1] was >62.
Consider `COc1ccc(COc2cccc(NC(=O)Nc3ccc(OC)cc3)c2)cc1` [Compound 11], for which the IC50 in data set [2] is > 100 µM; in data set [1] (A549, MTT, 48 h of treatment) it was 12 ± 1 µM. Further, in data set [1], the “SI (A-549) (IC50HEK293/A-549)” value is on record as >9.
For `COc1ccc(COc2cccc(NC(=O)Oc3ccccc3)c2)cc1` [Compound 14], in data set [3], the “Minimum Active Conc. (inhibition of microtube formation)” value stood at 20 µM. The IC50 in data set [2] was > 100 µM; in data set [1] (A549, 48 h), 3.7 ± 0.5 µM. In data set [1], the “SI (A-549) (IC50HEK293/A-549)” value was >27.
